Assay results published in PubChem BioAssay AID1259407 (Chemical Carcinogenesis Research Information System (CCRIS), 2018).
Active and inactive are the calls of the source. How the calls were made is not given here.

Test system: CCRIS mutagenicity, Ames/micronucleus/aberration tests
Test: CCRIS mutagenicity studies
[1] = Test System: AMES SALMONELLA TYPHIMURIUM, Strain/Indicator: TA100, Metabolic Activation: NONE, Method: PREINCUBATION
[2] = Test System: AMES SALMONELLA TYPHIMURIUM, Strain/Indicator: TA98, Metabolic Activation: NONE, Method: STANDARD PLATE

Cc1cccc2c1cc1ccc3cccc4ccc2c1c34
mutagenic call (Test System: AMES SALMONELLA TYPHIMURIUM, Strain/Indicator: TA100, Metabolic Activation: RAT, INTACT HEPATOCYTES, AROCLOR 1254, Method: PREINCUBATION): inactive; negative | mutagenic call (Test System: AMES SALMONELLA TYPHIMURIUM, Strain/Indicator: TA100, Metabolic Activation: RAT, NADPH-FORTIFIED HOMOGENIZED HEPATOCYTES, AROCLOR 1254, Method: PREINCUBATION): active; positive

CC(=O)OC[C@H]1OC(OC(C)=O)[C@H](NC(=O)N(C)N=O)[C@@H](OC(C)=O)[C@@H]1OC(C)=O (stereo not given in full)
mutagenic call (Test System: CHINESE HAMSTER V-79, Strain/Indicator: V-79/8-AZAGUANINE, Metabolic Activation: NONE, Method: STANDARD PLATE): active; positive

CC(=O)[C@@]1(C)O[C@]12C(=O)C=Cc1ccccc12
mutagenic call [1]: inactive; negative

CC(=O)O
mutagenic call (Test System: AMES SALMONELLA TYPHIMURIUM, Strain/Indicator: TA97, Metabolic Activation: HAMSTER, LIVER, S-9, AROCLOR 1254 (10%), Method: PREINCUBATION): inactive; negative | mutagenic call (Test System: AMES SALMONELLA TYPHIMURIUM, Strain/Indicator: TA97, Metabolic Activation: HAMSTER, LIVER, S-9, AROCLOR 1254 (30%), Method: PREINCUBATION): inactive; negative | mutagenic call (Test System: AMES SALMONELLA TYPHIMURIUM, Strain/Indicator: TA97, Metabolic Activation: NONE, Method: PREINCUBATION): inactive; negative | mutagenic call (Test System: AMES SALMONELLA TYPHIMURIUM, Strain/Indicator: TA97, Metabolic Activation: RAT, LIVER, S-9, AROCLOR 1254 (10%), Method: PREINCUBATION): inactive; negative | mutagenic call (Test System: AMES SALMONELLA TYPHIMURIUM, Strain/Indicator: TA97, Metabolic Activation: RAT, LIVER, S-9, AROCLOR 1254 (30%), Method: PREINCUBATION): inactive; negative | mutagenic call (Test System: AMES SALMONELLA TYPHIMURIUM, Strain/Indicator: TA97, Metabolic Activation: RAT, LIVER, S-9, AROCLOR 1254, Method: PREINCUBATION): inactive; negative | mutagenic call (Test System: AMES SALMONELLA TYPHIMURIUM, Strain/Indicator: TA98, Metabolic Activation: HAMSTER, LIVER, S-9, AROCLOR 1254 (10%), Method: PREINCUBATION): inactive; negative | mutagenic call (Test System: AMES SALMONELLA TYPHIMURIUM, Strain/Indicator: TA98, Metabolic Activation: HAMSTER, LIVER, S-9, AROCLOR 1254 (30%), Method: PREINCUBATION): inactive; negative | mutagenic call (Test System: AMES SALMONELLA TYPHIMURIUM, Strain/Indicator: TA98, Metabolic Activation: NONE, Method: PREINCUBATION): inactive; negative | mutagenic call (Test System: AMES SALMONELLA TYPHIMURIUM, Strain/Indicator: TA98, Metabolic Activation: RAT, LIVER, S-9, AROCLOR 1254 (10%), Method: PREINCUBATION): inactive; negative | mutagenic call (Test System: AMES SALMONELLA TYPHIMURIUM, Strain/Indicator: TA98, Metabolic Activation: RAT, LIVER, S-9, AROCLOR 1254 (30%), Method: PREINCUBATION): inactive; negative | mutagenic call (Test System: AMES SALMONELLA TYPHIMURIUM, Strain/Indicator: TA100, Metabolic Activation: HAMSTER, LIVER, S-9, AROCLOR 1254 (10%), Method: PREINCUBATION): inactive; negative | mutagenic call (Test System: AMES SALMONELLA TYPHIMURIUM, Strain/Indicator: TA100, Metabolic Activation: HAMSTER, LIVER, S-9, AROCLOR 1254 (30%), Method: PREINCUBATION): inactive; negative | mutagenic call [1]: inactive; negative | mutagenic call (Test System: AMES SALMONELLA TYPHIMURIUM, Strain/Indicator: TA100, Metabolic Activation: RAT, LIVER, S-9, AROCLOR 1254 (10%), Method: PREINCUBATION): inactive; negative | mutagenic call (Test System: AMES SALMONELLA TYPHIMURIUM, Strain/Indicator: TA100, Metabolic Activation: RAT, LIVER, S-9, AROCLOR 1254 (30%), Method: PREINCUBATION): inactive; negative | mutagenic call (Test System: AMES SALMONELLA TYPHIMURIUM, Strain/Indicator: TA102, Metabolic Activation: NONE, Method: PREINCUBATION): inactive; negative | mutagenic call (Test System: AMES SALMONELLA TYPHIMURIUM, Strain/Indicator: TA102, Metabolic Activation: RAT, LIVER, S-9, AROCLOR 1254, Method: PREINCUBATION): inactive; negative | mutagenic call (Test System: AMES SALMONELLA TYPHIMURIUM, Strain/Indicator: TA1535, Metabolic Activation: HAMSTER, LIVER, S-9, AROCLOR 1254 (10%), Method: PREINCUBATION): inactive; negative | mutagenic call (Test System: AMES SALMONELLA TYPHIMURIUM, Strain/Indicator: TA1535, Metabolic Activation: HAMSTER, LIVER, S-9, AROCLOR 1254 (30%), Method: PREINCUBATION): inactive; negative | mutagenic call (Test System: AMES SALMONELLA TYPHIMURIUM, Strain/Indicator: TA1535, Metabolic Activation: NONE, Method: PREINCUBATION): inactive; negative | mutagenic call (Test System: AMES SALMONELLA TYPHIMURIUM, Strain/Indicator: TA1535, Metabolic Activation: RAT, LIVER, S-9, AROCLOR 1254 (10%), Method: PREINCUBATION): inactive; negative | mutagenic call (Test System: AMES SALMONELLA TYPHIMURIUM, Strain/Indicator: TA1535, Metabolic Activation: RAT, LIVER, S-9, AROCLOR 1254 (30%), Method: PREINCUBATION): inactive; negative

O=[N+]([O-])c1ccc2cc3c(cc2c1)[C@H](O)[C@@H](O)C=C3
mutagenic call [2]: active; positive | mutagenic call (Test System: AMES SALMONELLA TYPHIMURIUM, Strain/Indicator: TA98, Metabolic Activation: RAT, LIVER, S-9, AROCLOR 1254, Method: STANDARD PLATE): active; positive

C=CCc1cc(OC)c2c(c1)OCO2
mutagenic call (Test System: UDS RAT HEPATOCYTES, Strain/Indicator: THY INCORP, Metabolic Activation: NONE, Method: LIQUID SCINTILLATION COUNTING): inactive; negative

CCC(O)/C=C/C=O (stereo not given)
mutagenic call (End Point: IN VITRO CHROMOSOMAL ABERRATIONS, Test System: RAT HEPATOCYTES, Metabolic Activation: NONE): active; positive | mutagenic call (End Point: IN VITRO MICRONUCLEUS, Test System: RAT HEPATOCYTES, Metabolic Activation: NONE): active; positive

[Cr]
mutagenic call [2]: active; positive | mutagenic call (Test System: AMES SALMONELLA TYPHIMURIUM, Strain/Indicator: TA98, Metabolic Activation: RAT, LIVER, S-9, PHENOBARBITAL, Method: STANDARD PLATE): inactive; negative | mutagenic call (Test System: AMES SALMONELLA TYPHIMURIUM, Strain/Indicator: TA102, Metabolic Activation: NONE, Method: STANDARD PLATE): inactive; negative | mutagenic call (Test System: AMES SALMONELLA TYPHIMURIUM, Strain/Indicator: TA102, Metabolic Activation: RAT, LIVER, S-9, PHENOBARBITAL, Method: STANDARD PLATE): inactive; negative | mutagenic call (Test System: AMES SALMONELLA TYPHIMURIUM, Strain/Indicator: TA1535, Metabolic Activation: NONE, Method: STANDARD PLATE): active; positive | mutagenic call (Test System: AMES SALMONELLA TYPHIMURIUM, Strain/Indicator: TA1535, Metabolic Activation: RAT, LIVER, S-9, PHENOBARBITAL, Method: STANDARD PLATE): inactive; negative | mutagenic call (Test System: AMES SALMONELLA TYPHIMURIUM, Strain/Indicator: TA1537, Metabolic Activation: NONE, Method: STANDARD PLATE): inactive; negative | mutagenic call (Test System: AMES SALMONELLA TYPHIMURIUM, Strain/Indicator: TA1537, Metabolic Activation: RAT, LIVER, S-9, PHENOBARBITAL, Method: STANDARD PLATE): inactive; negative
